Measured values reported in patent US11903917B2, “MEK-inhibitor for the treatment of viral and bacterial infections” (priority 2017, dated 2024).
pEC50: −log10 of the molar value. Values joined by “and” are separate entries in the source; they are usually repeats but may differ in a detail not shown here. Equal values may be shown once.

Experiments:
[1] = tested on: influenza virus strain A/Regensburg/D6/2009 (RB1, H1N1 pdm09); test: Example 1: virus titer in the lung of infected mice, AVICEL plaque assay; assay type: in vivo, C57BL/6 mice
Protocol: 8 weeks old C57BL/6 mice (five per group) were infected with 1.5×10^5 PFU (5×MLD50) of the influenza virus strain A/Regensburg/D6/2009, (RB1, H1N1 pdm09). […] All animals received a volume of 200 μl per os. Mice were sacrificed 24 h post infection and lungs were weighed, transferred into a Lysing Matrix D tube (MP Bio) and BSS (buffered salt solution) in an amount of the 10-fold volume of the lung was applied to the samples. Organs were shredded using the FastPrep FP 120 (Savant). To remove the cell debris the homogenates were centrifuged for 15 min at 2000 rpm and the supernatant collected. The determination of virus titer in homogenates was performed using the AVICEL® plaque assay. Results are presented in FIG. 1 as virus titer (log 10) pfu/ml (left) or % virus titer (right). Virus titer was determined by two investigators independently. Mean values from all titrations were presented.

[2] = tested on: A549 cells infected with A/Puerto Rico/8/34 (H1N1) and/or S. aureus 6850; assay type: cell-based
[3] = tested on: Streptococcus pneumoniae strain D39 wt (serotype 2); test: Over-night growth of Streptococcus pneumoniae (OD600, bacterial titers); assay type: cell-based; conditions: over night treatment
Protocol: (§1) Similar to S. aureus, the majority of Streptococcus pneumoniae strains express eukaryotic-like serine/threonine kinases, such as PknB, which are highly conserved between different genera. Additionally, these kinases share high homology to cellular MAP kinases (e.g. ERK, JNK, p38). […] Thus, the impact of PD-0184264 on different strains of Streptococci pneumonia was analyzed. Streptococcus pneumoniae strains can be divided into different serotypes, which differ in their virulence and overall pathogenicity. To test for a serotype- or strain-independent effect, we used the encapsulated strains D39 and TIGR4, which are both virulent, but belong to different serotypes. […] Then, the OD600 was measured again (Results shown in FIG. 11A) and dilution series were objected to BHI agar plates to determine bacterial titers (Results shown in FIG. 11B).

[4] = tested on: Streptococcus pneumoniae strain TIGR4 (serotype 4); test: as above; assay type: cell-based; conditions: over night treatment
Protocol: as §1

[5] = tested on: S. aureus 6850; test: Time-of-addition assay, bacterial titers at 0, 3 and 6 h, then medium exchange; assay type: cell-based, Staphylococcus aureus
[6] = WST-Assay (cell viability); assay type: cell-based; conditions: human, A549 cells, FIG. 17C
Protocol: A549 cells were seeded in a 96-well flat-bottom tissue plate (Greiner, Germany) and were grown overnight. […] Thereafter, 10 μl WST-1 reagent (Roche, Germany) was added to the culture medium and incubated for four hours. During this time, the stable tetrazolium salt WST-1 was cleaved to a soluble formazan by metabolically active cells in the culture. After this incubation period, the formazan dye formed was quantitated with ELISA reader at 405 nm. The measured absorbance directly correlated to the number of viable cells.

[7] = tested on: influenza A virus strain RB1 [A/Regensburg/D6/09 (H1N1 pdm09)]; test: Progeny virus inhibition assay in A549 cells; assay type: cell-based
[8] = tested on: Bacillus subtilis; test: Bacterial load of B. subtilis after 18 h (OD600, plating); assay type: cell-based
Protocol: Specifically, to test for a potential antibacterial effect on B. subtilis, over-night cultures of B. subtilis were incubated with either solvent or different concentrations of the MEK inhibitor PD-0184264 (as indicated) for 18 h. Afterwards, bacterial load was determined via measurement of the OD600 and plating of serial dilutions on BHI agar plates. Data shown in FIG. 11 represent means+SD of three independent experiments.

[9] = tested on: MRSA strain S. aureus (USA300); test: Cell-free culture bacterial growth (OD600)
Protocol: Bacterial growth was monitored for 360 minutes.
MRSA bacteria were incubated with different concentrations of the MEK inhibitor ranging from 0-100 μM and bacterial growth was monitored six hours after cultivation.

[10] = tested on: S. aureus 6850; test: Over-night treated culture, bacterial titers (CFU/ml) and OD600; assay type: cell-based, Staphylococcus aureus
[11] = tested on: S. aureus strain 6850; test: Bacterial growth under heat stress (42° C., 6 h) after inhibitor treatment; assay type: cell-based, Staphylococcus aureus; conditions: 20 μM over night, then 42° C. for 6 h, strain 6850, vs solvent
Protocol: (§2) As the kinase is known to play an important role in bacterial stress resistance, bacterial growth under heat stress was monitored after treatment of the bacteria with the inhibitor PD-0184264. S. aureus strain 6850 and MRSA strain USA300 were treated over night with either solvent or 20 μM of the PD-0184264. The next day subcultures with the same amount of bacteria were prepared (confirmed by OD600 and plating on BHI agar) and further incubated at 42° C. for 6 h. Bacterial titers were then calculated via plating of serial dilutions on BHI agar plates. […] This is both observed for the methicillin-sensitive strain 6850 (black bars) as well as for the MRSA strain USA300 (grey bars). Impaired stress tolerance in the presence of the inhibitor is another indication that PD-0184264 directly targets the kinase PknB, which is an important mediator of stress resistance. In summary, the data provide strong circumstantial evidence, that PD-0184264 elicits its antibacterial action by inhibition of the bacterial kinase PknB.

[12] = tested on: MRSA strain USA300; test: as above; assay type: cell-based, Staphylococcus aureus; conditions: 20 μM over night, then 42° C. for 6 h, MRSA USA300, vs solvent
Protocol: as §2

O=C(O)c1ccc(F)c(F)c1Nc1ccc(I)cc1Cl [PD-0184264, 2-(2-chloro-4-iodophenylamino)-N-3,4-difluoro benzoic acid]
effect on virus titer in the lung (FIG. 1) ([1]; 25 mg/kg per os, 8 h interval, 24 h post infection): same effect as 150 mg/kg CI-1040
efficacy in vivo by oral administration (Example 1) ([1]; 25 and 75 mg/kg): effective
concentration already showing reduction of the cytopathic effect ([2]; bacterial and viral co-infection, FIG. 5): 15 µM
cytopathic effect (CPE), cell monolayer disruption ([2]; increasing concentrations, 24 h, IAV (H1N1) MOI 0.001 and S. aureus 6850 MOI 0.1): reversed in a concentration dependent manner
sensitivity of growth (OD600, bacterial titers) [3]: sensitive
sensitivity of growth (OD600, bacterial titers) [4]: sensitive
inhibition of bacterial growth, compared with U0126 and gentamicin (0.5 or 2 μg/ml) ([5]; S. aureus 6850, 3 h and 6 h post inoculation): strongest inhibition of bacterial growth
mode of antibacterial action after medium exchange ([5]; cultures further incubated without substances reached turbidity of solvent culture): bacteriostatic rather than a bactericidal action
CC50 at 24 h [6]: > 1580 µM
reduction of progeny virus [7]: almost no reduction
reduction of virus titer [7]: 98.87±0.03% and 91.50±2.08% and 58.97±4.45%
fold higher EC50 value compared to the EC50 value of CI-1040 ([7]; CI-1040 value from Haasbach et al. 2017): 31 fold
pEC50 ([7]; Influenza A virus, H1N1, RB1 on A549 cells, FIG. 17B): 6.09
S.I. (selectivity index) ([7]; against RB1 on A549 cells): 1960
fold higher concentration needed to achieve similar reduction of progeny influenza virus as 10 μM CI-1040 ([7]; in vitro, A549): ~10 fold
viable bacterial counts ([8]; 10 μM): strong decrease in viable bacterial counts
viable bacterial counts ([8]; concentrations higher than 10 μM): complete abolishment
bacterial growth (OD600) ([9]; 50 μM, monitored for 360 minutes, vs solvent DMSO): almost complete absent
inhibition of bacterial growth (FIG. 3) ([9]; starting at 50 μM, 6 hrs): almost complete inhibition of growth
reduction of bacterial growth (FIG. 4) ([10]; 10 μM, over night, S. aureus 6850): significant reduction of growth
reduction of bacterial titers ([10]; 20 μM, over night, S. aureus 6850, CFU/ml): 1.5-2 orders of a magnitude
effect on bacterial titers (CFU/ml) ([10]; over night treatment, S. aureus 6850, vs solvent): very strong reduction in bacterial load
bacterial growth under heat stress (bacterial titers) [11]: strongly impaired
bacterial growth under heat stress (bacterial titers) [12]: strongly impaired
